Results on two compounds are retold here after ChEMBL document CHEMBL6109103, “Dodecapeptides derived from human cathelicidin with potent activity against carbapenem-resistant Acinetobacter baumannii” (Eur J Med Chem, 2025).

Series [1] in a line: Toxicity in BALB/c mouse assessed as heart damage at 16 mg/kg, ip measured for 3 days by H and E staining based analysis. Conditions: in vivo, 72 h, time 3 day. Format: organism-based.
Series [2] in a line: Toxicity in BALB/c mouse assessed as liver damage at 16 mg/kg, ip measured for 3 days by H and E staining based analysis. As to conditions: in vivo, 72 h, time 3 day. Format: organism-based.
Series [3] is described as follows: Toxicity in BALB/c mouse assessed as spleen damage at 16 mg/kg, ip measured for 3 days by H and E staining based analysis. As to conditions: in vivo, 72 h, time 3 day. Format: organism-based.
Series [4] can be described thus: Toxicity in BALB/c mouse assessed as lung damage at 16 mg/kg, ip measured for 3 days by H and E staining based analysis. Format: organism-based. Conditions: in vivo, 72 h, time 3 day.
Series [5] deals with Acinetobacter baumannii. The series is described as follows: Antibacterial activity against multidrug-resistant Acinetobacter baumannii assessed as inhibition of bacterial growth incubated for 24 hrs by broth dilution assay. Format: functional.
The test system of series [6] is Acinetobacter baumannii. In words: Antibacterial activity against Acinetobacter baumannii ATCC 19606 assessed as inhibition of bacterial growth incubated for 24 hrs by broth dilution assay. Format: functional.
Series [7] concerns Staphylococcus aureus. The series is described as follows: Antibacterial activity against Methicillin-resistant Staphylococcus aureus ATCC 43300 assessed as inhibition of bacterial growth incubated for 24 hrs by broth dilution assay. Format: functional. (In general: Dilution methods test growth across graded concentrations, often in twofold steps.)
Series [8] has as its system Staphylococcus aureus. The series is described as follows: Antibacterial activity against Staphylococcus aureus […] assessed as inhibition of bacterial growth incubated for 24 hrs by broth dilution assay. Format: functional.
A further series deals with HUVEC. The series is described as follows: Cytotoxicity against HUVEC cells assessed as cell death up to 50 microg/ml measured up to 24 hrs. Conditions: human, up to 50 µg/mL. Format: toxicity, cell-based.
Another series relates to A549. The series is described as follows: Cytotoxicity against human A549 cells assessed as cell death up to 50 microg/ml measured up to 24 hrs. Format: toxicity, cell-based. As to conditions: a549, 24 h, up to 50 µg/mL.

Broadly, the MIC is the lowest concentration that inhibits growth of the organism.

SMILES strings stand for the structures. ≈ marks a conversion by molar mass, not a printed value. Residues, ends and D or L forms follow the SMILES beside them.

Consider `CC(C)CCCCC(=O)N[C@@H](CCN)C(=O)N[C@H](C(=O)N[C@@H](CCN)C(=O)N[C@H]1CCNC(=O)[C@H]([C@@H](C)O)NC(=O)[C@H](CCN)NC(=O)[C@H](CCN)NC(=O)[C@H](CC(C)C)NC(=O)[C@@H](Cc2ccccc2)NC(=O)[C@H](CCN)NC1=O)[C@@H](C)O.CC[C@H](C)CCCCC(=O)N[C@@H](CCN)C(=O)N[C@H](C(=O)N[C@@H](CCN)C(=O)N[C@H]1CCNC(=O)[C@H]([C@@H](C)O)NC(=O)[C@H](CCN)NC(=O)[C@H](CCN)NC(=O)[C@H](CC(C)C)NC(=O)[C@@H](Cc2ccccc2)NC(=O)[C@H](CCN)NC1=O)[C@@H](C)O` (HELM PEPTIDE1{[CC[C@H](C)CCCCC(=O)[*:2]].[Dab].T.[Dab].[Dab].[Dab].[dF].L.[Dab].[Dab].T}$PEPTIDE1,PEPTIDE1,5:R3-11:R2$$$V2.0), for which the Activity result in series [1], in series [2], in [3] and in [4] was “Non-toxic” in each case.
`CC[C@H](C)[C@H](NC(=O)[C@H](CCCCN)NC(=O)[C@H](CCC(=O)O)NC(=O)[C@H](CCCCN)NC(=O)[C@H](CO)NC(=O)[C@H](CCCCN)NC(=O)[C@H](CCCNC(=N)N)NC(=O)[C@H](Cc1ccccc1)NC(=O)[C@H](Cc1ccccc1)NC(=O)[C@H](CC(=O)O)NC(=O)CNC(=O)[C@H](CC(C)C)NC(=O)[C@@H](N)CC(C)C)C(=O)NCC(=O)N[C@@H](CCCCN)C(=O)N[C@@H](CCC(=O)O)C(=O)N[C@@H](Cc1ccccc1)C(=O)N[C@@H](CCCCN)C(=O)N[C@@H](CCCNC(=N)N)C(=O)N[C@H](C(=O)N[C@H](C(=O)N[C@@H](CCC(N)=O)C(=O)N[C@@H](CCCNC(=N)N)C(=O)N[C@H](C(=O)N[C@@H](CCCCN)C(=O)N[C@@H](CC(=O)O)C(=O)N[C@@H](Cc1ccccc1)C(=O)N[C@@H](CC(C)C)C(=O)N[C@@H](CCCNC(=N)N)C(=O)N[C@@H](CC(N)=O)C(=O)N[C@@H](CC(C)C)C(=O)N[C@H](C(=O)N1CCC[C@H]1C(=O)N[C@@H](CCCNC(=N)N)C(=O)N[C@H](C(=O)N[C@@H](CCC(=O)O)C(=O)N[C@@H](CO)C(=O)O)[C@@H](C)O)C(C)C)[C@@H](C)CC)C(C)C)[C@@H](C)CC` [CATHELICIDIN]: the MIC was 10 µg/mL (≈ 2.23 µM) in the series on Acinetobacter baumannii [5], 40 µg/mL (≈ 8.9 µM) in the series on Acinetobacter baumannii [6], 320 µg/mL (≈ 71.2 µM) with Staphylococcus aureus [7] and > 320 µg/mL with Staphylococcus aureus [8]. For the same compound, the Activity with HUVEC and with A549 was 29% each time.
